Results taken from PubChem BioAssay AID1259407 (Chemical Carcinogenesis Research Information System (CCRIS), 2018).
Calls of active or inactive are those of the source. No rule for the calls is given here.

Test system: CCRIS mutagenicity, Ames/micronucleus/aberration tests
Assay: CCRIS mutagenicity studies
[1] = Test System: AMES SALMONELLA TYPHIMURIUM, Strain/Indicator: TA98, Metabolic Activation: NONE, Method: STANDARD PLATE
[2] = Test System: AMES SALMONELLA TYPHIMURIUM, Strain/Indicator: TA100, Metabolic Activation: NONE, Method: STANDARD PLATE
[3] = Test System: AMES SALMONELLA TYPHIMURIUM, Strain/Indicator: TA97, Metabolic Activation: HAMSTER, LIVER, S-9, AROCLOR 1254 (10 OR 30%), Method: PREINCUBATION
[4] = Test System: AMES SALMONELLA TYPHIMURIUM, Strain/Indicator: TA97, Metabolic Activation: NONE, Method: PREINCUBATION
[5] = Test System: AMES SALMONELLA TYPHIMURIUM, Strain/Indicator: TA97, Metabolic Activation: RAT, LIVER, S-9, AROCLOR 1254 (10 OR 30%), Method: PREINCUBATION
[6] = Test System: AMES SALMONELLA TYPHIMURIUM, Strain/Indicator: TA98, Metabolic Activation: HAMSTER, LIVER, S-9, AROCLOR 1254 (10 OR 30%), Method: PREINCUBATION
[7] = Test System: AMES SALMONELLA TYPHIMURIUM, Strain/Indicator: TA98, Metabolic Activation: NONE, Method: PREINCUBATION
[8] = Test System: AMES SALMONELLA TYPHIMURIUM, Strain/Indicator: TA98, Metabolic Activation: RAT, LIVER, S-9, AROCLOR 1254 (10 OR 30%), Method: PREINCUBATION
[9] = Test System: AMES SALMONELLA TYPHIMURIUM, Strain/Indicator: TA100, Metabolic Activation: HAMSTER, LIVER, S-9, AROCLOR 1254 (10 OR 30%), Method: PREINCUBATION
[10] = Test System: AMES SALMONELLA TYPHIMURIUM, Strain/Indicator: TA100, Metabolic Activation: NONE, Method: PREINCUBATION
[11] = Test System: AMES SALMONELLA TYPHIMURIUM, Strain/Indicator: TA100, Metabolic Activation: RAT, LIVER, S-9, AROCLOR 1254 (10 OR 30%), Method: PREINCUBATION
[12] = Test System: AMES SALMONELLA TYPHIMURIUM, Strain/Indicator: TA1535, Metabolic Activation: HAMSTER, LIVER, S-9, AROCLOR 1254 (10 OR 30%), Method: PREINCUBATION
[13] = Test System: AMES SALMONELLA TYPHIMURIUM, Strain/Indicator: TA1535, Metabolic Activation: NONE, Method: PREINCUBATION
[14] = Test System: AMES SALMONELLA TYPHIMURIUM, Strain/Indicator: TA1535, Metabolic Activation: RAT, LIVER, S-9, AROCLOR 1254 (10 OR 30%), Method: PREINCUBATION
[15] = Test System: AMES SALMONELLA TYPHIMURIUM, Strain/Indicator: TA1537, Metabolic Activation: NONE, Method: PREINCUBATION

SMILES: O=Nc1c2ccccc2c2ccc3cccc4ccc1c2c43
- mutagenic call (Test System: AMES SALMONELLA TYPHIMURIUM, Strain/Indicator: TA97, Metabolic Activation: NONE, Method: STANDARD PLATE): active; positive
- mutagenic call (Test System: AMES SALMONELLA TYPHIMURIUM, Strain/Indicator: TA98 (1,8-DNP6), Metabolic Activation: NONE, Method: STANDARD PLATE): active; positive
- mutagenic call (Test System: AMES SALMONELLA TYPHIMURIUM, Strain/Indicator: TA98 (NR), Metabolic Activation: NONE, Method: STANDARD PLATE): active; positive
- mutagenic call (Test System: AMES SALMONELLA TYPHIMURIUM, Strain/Indicator: TA98, Metabolic Activation: NONE', Method: STANDARD PLATE): active; positive
- mutagenic call [1]: active; positive
- mutagenic call [2]: active; positive
- mutagenic call (Test System: AMES SALMONELLA TYPHIMURIUM, Strain/Indicator: TA104, Metabolic Activation: NONE, Method: STANDARD PLATE): active; positive
- mutagenic call (Test System: CHINESE HAMSTER OVARY, Strain/Indicator: CHO-K1-BH4 (HGPRT), Metabolic Activation: NONE): active; positive

SMILES: O=C(OOC(=O)c1ccccc1)c1ccccc1
- mutagenic call [3]: inactive; negative
- mutagenic call [4]: inactive; negative
- mutagenic call [5]: inactive; negative
- mutagenic call (Test System: AMES SALMONELLA TYPHIMURIUM, Strain/Indicator: TA97, Metabolic Activation: RAT, LIVER, S-9, AROCLOR 1254, Method: PREINCUBATION): inactive; negative
- mutagenic call (Test System: AMES SALMONELLA TYPHIMURIUM, Strain/Indicator: TA97A, Metabolic Activation: NONE, Method: PREINCUBATION): inactive; negative
- mutagenic call (Test System: AMES SALMONELLA TYPHIMURIUM, Strain/Indicator: TA97A, Metabolic Activation: RAT LIVER S-9, AROCLOR 1254, Method: PREINCUBATION): inactive; negative
- mutagenic call [6]: inactive; negative
- mutagenic call [7]: inactive; negative
- mutagenic call (Test System: AMES SALMONELLA TYPHIMURIUM, Strain/Indicator: TA98, Metabolic Activation: RAT LIVER S-9, PHENOBARBITAL AND BETA-NAPHTHOFLAVONE, Method: PREINCUBATION): inactive; negative
- mutagenic call [8]: inactive; negative
- mutagenic call [9]: inactive; negative
- mutagenic call [10]: inactive; negative
- mutagenic call (Test System: AMES SALMONELLA TYPHIMURIUM, Strain/Indicator: TA100, Metabolic Activation: RAT LIVER S-9, AROCLOR 1254, Method: PREINCUBATION): inactive; negative
- mutagenic call (Test System: AMES SALMONELLA TYPHIMURIUM, Strain/Indicator: TA100, Metabolic Activation: RAT LIVER S-9, PHENOBARBITAL AND BETA-NAPHTHOFLAVONE, Method: PREINCUBATION): inactive; negative
- mutagenic call [11]: inactive; negative
- mutagenic call (Test System: AMES SALMONELLA TYPHIMURIUM, Strain/Indicator: TA102, Metabolic Activation: NONE, Method: PREINCUBATION): inactive; negative
- mutagenic call (Test System: AMES SALMONELLA TYPHIMURIUM, Strain/Indicator: TA102, Metabolic Activation: RAT LIVER S-9, AROCLOR 1254, Method: PREINCUBATION): inactive; negative
- mutagenic call (Test System: AMES SALMONELLA TYPHIMURIUM, Strain/Indicator: TA102, Metabolic Activation: RAT, LIVER, S-9, AROCLOR 1254, Method: PREINCUBATION): inactive; negative
- mutagenic call (Test System: AMES SALMONELLA TYPHIMURIUM, Strain/Indicator: TA104, Metabolic Activation: NONE, Method: PREINCUBATION): inactive; negative
- mutagenic call (Test System: AMES SALMONELLA TYPHIMURIUM, Strain/Indicator: TA104, Metabolic Activation: RAT LIVER S-9, AROCLOR 1254, Method: PREINCUBATION): inactive; negative
- mutagenic call [12]: inactive; negative
- mutagenic call [13]: inactive; negative
- mutagenic call (Test System: AMES SALMONELLA TYPHIMURIUM, Strain/Indicator: TA1535, Metabolic Activation: RAT LIVER S-9, PHENOBARBITAL AND BETA-NAPHTHOFLAVONE, Method: PREINCUBATION): inactive; negative
- mutagenic call [14]: inactive; negative
- mutagenic call [15]: inactive; negative
- mutagenic call (Test System: AMES SALMONELLA TYPHIMURIUM, Strain/Indicator: TA1537, Metabolic Activation: RAT LIVER S-9, PHENOBARBITAL AND BETA-NAPHTHOFLAVONE, Method: PREINCUBATION): inactive; negative
- mutagenic call (Test System: E.COLI, Strain/Indicator: WP2UVRA/PKM101, Metabolic Activation: NONE, Method: PREINCUBATION): inactive; negative
- mutagenic call (Test System: E.COLI, Strain/Indicator: WP2UVRA/PKM101, Metabolic Activation: RAT LIVER S-9, PHENOBARBITAL AND BETA-NAPHTHOFLAVONE, Method: PREINCUBATION): inactive; negative

SMILES: Nc1c(N=Nc2ccc([N+](=O)[O-])cc2)c(S(=O)(=O)O)cc2c1C(=O)/C(=N\Nc1ccc(-c3ccc(NN=C4C=CC(=O)C=C4)cc3)cc1)C(S(=O)(=O)O)=C2
- mutagenic call (Test System: AMES SALMONELLA TYPHIMURIUM, Strain/Indicator: TA98, Metabolic Activation: HAMSTER, LIVER, S-9, Method: PREINCUBATION (PRIVAL METHOD)): active; positive
- mutagenic call [1]: inactive; negative
- mutagenic call (Test System: AMES SALMONELLA TYPHIMURIUM, Strain/Indicator: TA98, Metabolic Activation: RAT, LIVER, S-9, PHENOBARBITAL, Method: STANDARD PLATE): inactive; negative
- mutagenic call [2]: inactive; negative
- mutagenic call (Test System: AMES SALMONELLA TYPHIMURIUM, Strain/Indicator: TA100, Metabolic Activation: RAT, LIVER, S-9, PHENOBARBITAL, Method: STANDARD PLATE): inactive; negative

SMILES: Cc1ccccc1C=O
- mutagenic call [3]: inactive; negative
- mutagenic call [4]: inactive; negative
- mutagenic call [5]: inactive; negative
- mutagenic call [6]: inactive; negative
- mutagenic call [7]: inactive; negative
- mutagenic call [8]: inactive; negative
- mutagenic call [9]: inactive; negative
- mutagenic call [10]: inactive; negative
- mutagenic call [11]: inactive; negative
- mutagenic call [12]: inactive; negative
- mutagenic call [13]: inactive; negative
- mutagenic call [14]: inactive; negative
- mutagenic call (Test System: AMES SALMONELLA TYPHIMURIUM, Strain/Indicator: TA1537, Metabolic Activation: HAMSTER, LIVER, S-9, AROCLOR 1254 (10 OR 30%), Method: PREINCUBATION): inactive; negative
- mutagenic call [15]: inactive; negative
- mutagenic call (Test System: AMES SALMONELLA TYPHIMURIUM, Strain/Indicator: TA1537, Metabolic Activation: RAT, LIVER, S-9, AROCLOR 1254 (10%), Method: PREINCUBATION): inactive; negative

SMILES: O[C@@H]([C@H](O)[C@H](O)CBr)[C@H](O)CBr
- mutagenic call [1]: inactive; negative
- mutagenic call [2]: inactive; negative
- mutagenic call (Test System: AMES SALMONELLA TYPHIMURIUM, Strain/Indicator: TA100, Metabolic Activation: S-9, Method: STANDARD PLATE): active; positive
- mutagenic call (Test System: E. COLI, Strain/Indicator: WP2 (HCR), Metabolic Activation: NONE, Method: STANDARD PLATE): inactive; negative
- mutagenic call (Test System: E. COLI, Strain/Indicator: WP2 (HCR), Metabolic Activation: S-9, Method: STANDARD PLATE): active; positive

SMILES: O=Cc1ccc2ccc3cccc4ccc1c2c34
- mutagenic call (Test System: AMES SALMONELLA TYPHIMURIUM, Strain/Indicator: TA98, Metabolic Activation: RAT, LIVER, S-9, AROCLOR 1254, Method: STANDARD PLATE): active; positive
- mutagenic call (Test System: AMES SALMONELLA TYPHIMURIUM, Strain/Indicator: TA100, Metabolic Activation: RAT, LIVER, S-9, AROCLOR 1254, Method: STANDARD PLATE): active; positive
